The record followed here is ChEMBL document CHEMBL3734690, “Design, Synthesis, and Biological Evaluation of Indole Biphenylcarboxylic Acids as PPARγ Antagonists” (ACS Med Chem Lett, 2015).

Data set [1] can be described thus: in vivo. Particulars: mouse, plasma, po, 20 mg/kg.
Description: Plasma concentration in mouse at 20 mg/kg, po after 2 hrs
Data set [2] is described as follows: in vivo. The settings on record: mouse, plasma, po, 20 mg/kg. This is another data set of the same source.
Description: Plasma concentration in mouse at 20 mg/kg, po after 6 hrs

In “in vivo [1]”, `Cc1c(C)n(Cc2ccc(-c3ccccc3-c3n[nH]c(=O)o3)cc2)c2ccc(C(=O)N[C@@H](C)c3cccc(C(C)C)c3)cc12` came in with a concentration at 2 h of 200 nM. The same compound yielded a concentration at 6 h in the data set “in vivo [2]” of 10 nM.
The corresponding values for `Cc1c(C)n(Cc2ccc(-c3ccccc3C(=O)O)cc2)c2ccc(C(=O)N[C@@H](C)c3cccc(C4CC4)c3)cc12` are 19000 nM and 2400 nM.
The corresponding values for `Cc1c(C)n(Cc2ccc(-c3ccccc3C(=O)O)cc2)c2ccc(C(=O)N[C@@H](C)c3ccc(C(C)(C)C)cc3)cc12` are 5600 nM and 1900 nM.
In the data set “in vivo [1]”, `Cc1c(C)n(Cc2ccc(-c3ccccc3C(N)=O)cc2)c2ccc(C(=O)N[C@@H](C)c3cccc(C(C)C)c3)cc12` displayed a concentration at 2 h of 2500 nM. The same compound showed a concentration at 6 h in the data set “in vivo [2]” of 100 nM.
The matching figures for `Cc1c(C)n(Cc2ccc(-c3ccccc3C(=O)NO)cc2)c2ccc(C(=O)N[C@@H](C)c3cccc(C(C)C)c3)cc12`: 400 nM and 30 nM.
